Entries after “also recorded” stand apart in the source; their conditions may differ.
Legend:
neuronal cells = test: Intracellular calcium level [Ca2+]i in primary neurons (Fura-2 fluorescence ratio 340/380 nm); type: cell-based, rat; details: 200 μM stimulant and 2.5 mM Ca2+, without sorbicillactone A
Description: Material: The same materials as described in Perovic et al. (1998, Mech. Ageing Dev. 101:1-19) were used. Fura-2-acetoxymethylester (Fura-2-AM) was obtained from Molecular Probes (Leiden, The Netherlands), Dulbecco's modified Eagle's Medium with 4.5 g/L glucose (DMEM/HG), L-glutamic acid (L-Glu), and serotonin (5-HT) from Sigma-Aldrich (Taufkirchen, Germany) and the antibodies mouse-anti-neurofilament (68 kDa) and mouse-anti-glial-fibrillary-acidic-protein (GFAP) from Roche Diagnostics (Mannheim, Germany). Sorbicillactone A of the batch: 2208/2a was used.
Primary neurons: The cortical cell culture was produced from the brains of 17-18 day-old rat embryos, according to a modified procedure [Freshney (1987) Culture of specific cell types. In: Culture of Animal Cells. A Manual of Basic Technique, A. R. Liss, New York, S. 257-288; Perovic et al. (1994) Eur. J. Pharmacol. (Mol. Pharmacol. Sec.) 288:27-33]. After the isolation, the cerebral-hemispheres were put into Hank's Balanced Salt Solution (HBSS) without Ca^2+ and Mg^2+, and the neuronal cells were subsequently dissociated in HBSS using 0.025% (w/v) trypsin (10 min.; 37° C.). The proteolytic reaction was stopped with 10% (v/v) foetal calf serum (FCS). The single-cell suspensions were centrifuged, and the resulting pellet was taken up into Dulbecco's modified Eagles's Medium with 4.5 g/L glucose (DMEM/HG) (contains 2 mM L-glutamine, 100 mU/L insulin, and 10% (v/v) FCS). The cells were plated in a chamber with poly-L-lysine (5 μg/mL, 300 μl/cm^2) in a cell density of 2.0×10^5 cells/cm^2. After two days the DMEM/HG/10%-FCS-medium was removed and replaced with DMEM/HG/serum-free medium. Two weeks after the isolation, the immune staining took place with anti-neurofilament (68 kDa) as a marker for neurons, and anti-GFAP as a marker for glial cells. The cultures contained >80% neurons; the residual 20% were GFAP-positive cells, mainly astrocytes (Ushijima et al. (1995) Eur. J. Neurosci. 7:1353-9). The neurons were held in an atmosphere of 95% air and 5% CO2 at 37° C.
Loading of neurons with Fura-2-AM: The intracellular Ca^2+-concentration ([Ca^2+]i) was determined by fluorescence measurements. The ratio of the absorption of the Ca^2+-indicator dye Fura-2-AM at 340 and 380 nm (Grynkiewicz et al. (1985) J. Biol. Chem. 260:3440-50) was decisive. The neurons were loaded with 6 μM Fura-2-AM in DMEM/HG/serum-free medium (supplemented with 1% (w/v) bovine serum albumin) at 37° C. for 60 min. After incubation, the cells were washed two times with medium, and further incubated for 45 min at 37° C.
Calcium-calibration curve: A calcium-calibration curve was produced according to the methods of Grynkiewicz et al. (1985, J. Biol. Chem. 260:3440-50). Fluorescence pictures were obtained for each buffer at 340 and 380 nm. The quotient from both fluorescence spectra (340/380 nm) was calculated, and depicted as a calibration curve. The quotient (340/380 nm [ratio-value]) of 1.0 corresponds to 228 nM [Ca^2+]i.
Changes of the calcium level in neurons: In all experimental settings, the cells were first loaded with Fura-2-AM, and subsequently stimulated with different substances (in Locke's solution; 154 mM NaCl; 5.6 mM KCl; 3.6 mM NaHCO3; 5.6 mM glucose, and 10 mM Hepes; pH 7.4; without CaCl2). Sorbicillactone A was dissolved in a concentration of 10 mg/mL in 100% (v/v) DMSO, and stored at −20° C. In the first setting, the neurons were stimulated for 5 min with 0.1% (v/v) DMSO (control); after 10 min 200 μM L-glutamic acid (L-Glu), 200 μM serotonin (5-HT), and 2.5 mM CaCl2 were added to the cells. In a second setting, the effect of L-Glu, 5-HT, and 2.5 mM CaCl2 on the calcium level of pre-incubated neurons (each 5 min with 10 μg/mL sorbicillactone A) was tested. In all experiments, the [Ca^2+]i-level was measured for at least 20-25 min. […]

[1] = test system: L5178Y-mouse lymphoma cells (ATCC CRL 1722); test: Apoptosis detection (Cell Death Detection ELISA plus); type: cell-based; details: for MW ± SD (OD) / % of the control (negative): 4 hours incubation; for MW ± SD (OD): 405 nm; for % of the control (negative): negative control = 100%
Experimental: Material: RPMI1640-medium, Hepes buffered, was obtained from Sigma-Aldrich (Taufkirchen, Germany), foetal calf serum (FCS) from Gibco (Karlsruhe, Germany), and Cell Death Detection ELISA plus from Roche (Mannheim, Germany, Cat. No. 1774425). Sorbicillactone A of the batch: 2208/2a was used.
Incubation and preparation of the cells: The L5178Y-mouse lymphoma cells (ATCC CRL 1722)) were counted, and adjusted to a number of cells of 10^4 cells/mL. The sorbicillactone-A- and dihydrosorbicillactone-A-stock solution (10 mg/mL in DMSO) was diluted with medium (RPMI/Hepes with 10% FCS) to concentrations of 60, 20, and 6 μg/mL. In a 96-well-culture plate, 100 μl cell suspension (˜10^3 cells) were each pipetted to each of the 100 μl of the different dihydrosorbicillactone-A- and sorbicillactone-A-solutions. RPMI1640-medium without dihydrosorbicillactone and sorbicillactone A was used as a negative control. The final concentrations were 30, 10, and 3 μg/mL sorbicillactone A and dihydrosorbicillactone A. Four parallel settings of each sample were analysed. The cells were incubated for 4 hours at 37° C. After the incubation, the culture plate was centrifuged at […] (˜1200 rpm) for 10 min at room temperature. The supernatant was carefully pipetted off, and the cells were each overlayered with 200 μl lysis-buffer (Roche-Kit). Then, the cells were lysed for 30 min at room temperature. After the lysis, the culture plate was again centrifuged at 200×g (˜1200 rpm) for 10 min at room temperature.
ELISA: Two strips with eight wells each were taken from the streptavidin-ELISA-plate of the Roche-kit. 20 μl of the supernatant of a cell-lysis (see above) were added into each well. In doing so, the samples with 30 or 10 μg/mL of sorbicillactone A and dihydrosorbicillactone A were loaded as 4-fold, and all other as duplicate determinations. In addition to these sample, a positive control (DNA-histone-complex) was loaded. Then, 80 μl of immune reagent were added into each well. This solution consisted of incubation buffer, anti-histone-biotin, and anti-DNA-peroxidase. The incubation buffer was used as a blank value. The ELISA-plate was incubated for 2 hours in a shaking incubator at room temperature. Them the supernatants were carefully removed, and the wells were each washed 3× with 250 μl of the incubation buffer. After the washing, 100 μl of ABTS-solution were added into each “well”. Subsequently, the cells were incubated for 30 min in the dark at room temperature. The measurement took place in a multiscan at an emission wavelength of 405 nm.

[2] = Relative activity compared with sorbicillactone A (test not specified)

SMILES	increase of the 340-/380-nm-values (neuronal cells)	increase of the 340-/380-nm-values, control assumed to be 100% (neuronal cells) [%]	MW ± SD (OD) ([1]; 3 μg/mL)	% of the control (negative) ([1]; 3 μg/mL) [%]	MW ± SD (OD) ([1]; 10 μg/mL)	% of the control (negative) ([1]; 10 μg/mL) [%]	MW ± SD (OD) ([1]; 30 μg/mL)	% of the control (negative) ([1]; 30 μg/mL) [%]	induction of apoptosis ([1]; 3, 10, and 30 μg/mL, 4 hours of incubation)	activity relative to sorbicillactone A [2]
N[C@@H](CCC(=O)O)C(=O)O [L-glutamic acid]	1.715±0.081	307.1	–	–	–	–	–	–	–	–
NCCc1c[nH]c2ccc(O)cc12 [Serotonin, serotonin]	0.971±0.112	219.9	–	–	–	–	–	–	–	–
C/C=C/CC/C(O)=C1/C(=O)C(C)=C(O)[C@@]2(C)OC(=O)[C@@](C)(NC(=O)/C=C/C(=O)O)[C@@H]12 [dihydrosorbicillactone A]	–	–	0.016 ± 0.003	76.2	0.013 ± 0.002	61.9	0.016 ± 0.004	76.2	did not result in an induction of apoptosis; also recorded: did not induce apoptosis	five-fold less active

From patent US20070135515A1, “Method for producing sorbicillactone a” (priority 2004, published 2007)
